Laboratory results published in patent US9440981B2, “Pyrrolo[2, 1-F] [1,2,4]triazine derivative and use thereof for treating tumors” (PHARMABLOCK (NANJING) R&D CO. LTD., priority 2012, dated 2016).

How the values were obtained:
Format in all cases: cell-based
[1] = test system: human prostatic cancer cell line PC-3; test: MTT assay, growth inhibition of PC-3 cells; conditions: 96-hr culture, read-out: IC50 ± SD, PC-3
Experimental: (§1) The inhibition of the compounds of the present invention on growth of a variety of human tumor cell lines is evaluated by MTT assay.
(§2) Method: cells in exponential phase (human gastric cancer cell line SGC-7901, human non-small cell lung cancer cell line A549, human breast cancer cell line BT-549, human prostatic cancer cell line PC-3, human colon cancer cell line HT-29, and human liver cancer cell line SMMC-7721) are seeded at a density of 1.5×10^4 in a 96-well plate. After 24-hr culture, the cells are grown to confluent and the previous culture medium is aspirated. The test includes a control group, and a treatment group. In the control group, a 1640 medium containing 10% fetal bovine serum is replenished; and in the treatment group, a medium containing 100 μM, 50 μM, 10 μM, 1 μM, 0.1 μM, 0.01 μM, 0.001 μM, 0.0001 μM, and 0.00001 μM test compound is replenished. After 96-hr culture, 5 mg/mL MTT is added, and cultured in a CO2 incubator for another 4 hrs. Then, 100 μL of the supernatant is aspirated from the upper portion of the culture medium, and placed in the dark for 10 min after 100 μL DMSO is added. The absorbance (at 570 nm) is measured on a microplate reader (available from Sunrise Co., Ltd.), and the cell viability is calculated from the absorbance. 6 replicate wells are set for each treatment. Cell viability (%)=ΔODtreatment/ΔODcontrol×100.
(§3) The ID50 values of six compounds for inhibiting the growth of numerous human tumor cell lines are calculated by Sigmaplot 10.0 software and are shown in Table 1.

[2] = test system: human non-small cell lung cancer cell line A549; test: MTT assay, growth inhibition of A549 cells; conditions: 96-hr culture, read-out: IC50 ± SD, A549
Experimental: as §1, §2, §3

[3] = test system: human breast cancer cell line BT-549; test: MTT assay, growth inhibition of BT-549 cells; conditions: 96-hr culture, read-out: IC50 ± SD, BT-549
Experimental: as §1, §2, §3

[4] = test system: human colon cancer cell line HT-29; test: MTT assay, growth inhibition of HT-29 cells; conditions: 96-hr culture, read-out: IC50 ± SD, HT-29
Experimental: as §1, §2, §3

[5] = test system: human liver cancer cell line SMMC-7721; test: MTT assay, growth inhibition of SMMC-7721 cells; conditions: 96-hr culture, read-out: IC50 ± SD, SMMC-7721
Experimental: as §1, §2, §3

[6] = test system: human gastric cancer cell line SGC-7901; test: MTT assay, growth inhibition of SGC-7901 cells; conditions: 96-hr culture, read-out: IC50 ± SD, SGC-7901
Experimental: as §1, §2, §3

## CS(=O)(=O)N1CCN(Cc2cc3c(N4CCOCC4)nc(-c4cccc5[nH]ccc45)nn3c2)CC1 [Compound I-1]
[1]
  IC50: 510 ± 60 nM
[2]
  IC50: 2610 ± 340 nM
[3]
  IC50: 1270 ± 80 nM
[4]
  IC50: 990 ± 40 nM
[5]
  IC50: 1690 ± 180 nM
[6]
  IC50: 2150 ± 140 nM

## CS(=O)(=O)N1CCN(Cc2cc3c(N4CCOCC4)nc(-c4cccc5[nH]ncc45)nn3c2)CC1 [Compound I-2]
[1]
  IC50: 440 ± 80 nM
[2]
  IC50: 2950 ± 450 nM
[3]
  IC50: 350 ± 150 nM
[4]
  IC50: 160 ± 30 nM
[5]
  IC50: 2530 ± 1490 nM
[6]
  IC50: 1350 ± 280 nM

## CS(=O)(=O)N1CCN(Cc2cc3c(N4CCOCC4)nc(-c4ccnc5[nH]ccc45)nn3c2)CC1 [Compound I-3]
[1]
  IC50: 780 ± 360 nM
[2]
  IC50: 2730 ± 520 nM
[3]
  IC50: 1990 ± 70 nM
[4]
  IC50: 960 ± 310 nM
[5]
  IC50: 1720 ± 70 nM
[6]
  IC50: 2520 ± 60 nM

## CS(=O)(=O)N1CCN(Cc2cc3c(N4CCOCC4)nc(-c4cnc(N)nc4)nn3c2)CC1 [Compound I-4]
[1]
  IC50: 1170 ± 140 nM
[2]
  IC50: 620 ± 60 nM
[3]
  IC50: 610 ± 70 nM
[4]
  IC50: 1210 ± 40 nM
[5]
  IC50: 630 ± 110 nM
[6]
  IC50: 830 ± 30 nM

## CS(=O)(=O)N1CCN(C(=O)c2cc3c(N4CCOCC4)nc(-c4cccc5[nH]ncc45)nn3c2)CC1 [Compound I-5]
[1]
  IC50: 220 ± 10 nM
[2]
  IC50: 1960 ± 330 nM
[3]
  IC50: 590 ± 220 nM
[4]
  IC50: 730 ± 20 nM
[5]
  IC50: 2150 ± 190 nM
[6]
  IC50: 3350 ± 460 nM

## CC(C)(O)c1cc2c(N3CCOCC3)nc(-c3cccc4[nH]ncc34)nn2c1 [Compound I-6]
[1]
  IC50: 1050 ± 640 nM
[2]
  IC50: 1350 ± 280 nM
[3]
  IC50: 2600 ± 670 nM
[4]
  IC50: 2150 ± 190 nM
[5]
  IC50: 1840 ± 320 nM
[6]
  IC50: 1010 ± 20 nM

## CCS(=O)(=O)N1CCN(Cc2cc3c(N4CCOCC4)nc(-c4cnc(N)nc4)nn3c2)CC1 [Compound I-7]
[1]
  IC50: 290 ± 130 nM
[2]
  IC50: 1930 ± 230 nM
[3]
  IC50: 340 ± 40 nM
[4]
  IC50: 470 ± 90 nM
[5]
  IC50: 1630 ± 390 nM
[6]
  IC50: 2390 ± 480 nM

## CC(=O)N1CCN(Cc2cc3c(N4CCOCC4)nc(-c4cnc(N)nc4)nn3c2)CC1 [Compound I-8]
[1]
  IC50: 140 ± 90 nM
[2]
  IC50: 1030 ± 140 nM
[3]
  IC50: 110 ± 20 nM
[4]
  IC50: 290 ± 50 nM
[5]
  IC50: 1280 ± 230 nM
[6]
  IC50: 1420 ± 230 nM

## Nc1ncc(-c2nc(N3CCOCC3)c3cc(CN4CCN(C(=O)C5CC5)CC4)cn3n2)cn1 [Compound I-9]
[1]
  IC50: 930 ± 180 nM
[2]
  IC50: 3210 ± 380 nM
[3]
  IC50: 410 ± 110 nM
[4]
  IC50: 870 ± 160 nM
[5]
  IC50: 3140 ± 380 nM
[6]
  IC50: 2510 ± 350 nM

## C[C@H](O)C(=O)N1CCN(Cc2cc3c(N4CCOCC4)nc(-c4cnc(N)nc4)nn3c2)CC1 [Compound I-10]
[1]
  IC50: 200 ± 110 nM
[2]
  IC50: 1480 ± 190 nM
[3]
  IC50: 130 ± 30 nM
[4]
  IC50: 310 ± 80 nM
[5]
  IC50: 1050 ± 240 nM
[6]
  IC50: 1290 ± 140 nM

## C[C@@H](O)C(=O)N1CCN(Cc2cc3c(N4CCOCC4)nc(-c4cnc(N)nc4)nn3c2)CC1 [Compound I-11]
[1]
  IC50: 250 ± 120 nM
[2]
  IC50: 1500 ± 200 nM
[3]
  IC50: 290 ± 130 nM
[4]
  IC50: 850 ± 180 nM
[5]
  IC50: 2050 ± 280 nM
[6]
  IC50: 1490 ± 150 nM

## CS(=O)(=O)N1CCN(Cc2cc3nc(-c4cccc5[nH]ncc45)nc(N4CCOCC4)c3s2)CC1 [GDC-0941, reference compound]
[1]
  IC50: 220 ± 20 nM
[2]
  IC50: 1980 ± 340 nM
[3]
  IC50: 590 ± 220 nM
[4]
  IC50: 780 ± 20 nM
[5]
  IC50: 2450 ± 190 nM
[6]
  IC50: 9370 ± 1430 nM
